The conditions of data set [1]: for Normal melting temperature: Crystal, DTA; for mass density: 298.15 K, 101.33 kPa, Liquid, Vibrating tube method.
Data set [2] in a line: Molar enthalpy of transition or fusion. The conditions noted are these: Crystal; DSC.

Several values for one entry are separate records, joined by “and”; a condition that tells them apart may be missing. Equal entries are not always repeated. ± gives the expanded uncertainty stated by the source.

`CC(=O)Oc1ccccc1C(=O)O` [2-acetoxybenzoic acid]: in data set [1], the Normal melting temperature came to 135.50 ± 0.7 °C. Also, the “Molar enthalpy of transition or fusion” value in data set [2] amounted to 8.01 ± 0.174 kcal/mol.

Turning to `CC(=O)Nc1ccc(O)cc1` [N-acetyl-p-aminophenol], in data set [1], the Normal melting temperature was found to be 169.20 ± 0.7 °C. In addition, the “Molar enthalpy of transition or fusion” value in data set [2] came out at 6.57 ± 0.146 kcal/mol.

As for `CCO` [ethanol], the mass density in data set [1] was 785.02 ± 0.12 kg/m3.

As for `NC(N)=Nc1nc(CSCC/C(N)=N/S(N)(=O)=O)cs1` [famotidine], in data set [2], the “Molar enthalpy of transition or fusion” value is 11.5 kcal/mol and 12 kcal/mol.

`N=C(N)N` [guanidine]: the Normal melting temperature in data set [1] turned out to be 141.00 ± 0.7 °C. Also, the “Molar enthalpy of transition or fusion” value in data set [2] came to 8.48 ± 0.184 kcal/mol.

Consider `CO` [methanol], for which the mass density in data set [1] was found to be 786.59 ± 0.12 kg/m3.

As to `CCCCCCCCO` [octan-1-ol], in data set [1], the mass density amounted to 821.6 ± 0.11 kg/m3.

On to `CC(C)O` [propan-2-ol], for which the mass density in data set [1] stood at 780.8 ± 0.13 kg/m3.

In general, mass density refers to mass per unit of volume.

The values are drawn from the NIST ThermoML archive (doi:10.1016/j.fluid.2015.07.032).
